Where “and” joins values, the source holds several entries; their conditions need not be identical. Identical values can stand only once. Counter-ions that a name gives are not always drawn.

Series [1] relates to Rhinovirus 2 (HGP). Briefly: Antiviral activity tube method (Rightsel procedure), liquid media, HeLa cells. Type of series: cell-based. The note with it: for Antiviral: concentration at which active, Day 4: 20 TCID50 (Example 7). An excerpt: (§1) Compounds of the present invention show antiviral activity in concentrations of 50 to 100 γ/ml when tested in liquid media using the procedure of Rightsel (Univ. of Mich. Med. Bull. 24:222-234 (1958)) and on solid media using the Herrmann modification of the Dulbecco Technique (Proc. Nat. Acad. Sci., Wash. 38:747-752 (1952); Proc. Soc. Exp. Bio., N.Y., 103: 625-628 (1960)).
(§2) More particularly the protocol for the Rightsel procedure used is as follows:
(§3) ANTIVIRAL ACTIVITY TUBE METHOD
(§4) PURPOSE: The determination of toxicity and antiviral activity of
(§5) experimental compounds in normal and cancer cell lines
(§6) in vitro in tubes with liquid culture media.
(§7) MATERIALS: Cell Lines - cancer
(§8) HeLa - Human Carcinoma of the Cervix
(§9) Virus - Rhinovirus 2 (HGP)
Growth Medium - Basal Medium Eagle (BME) with Earle's
salts, containing 10 % fetal bovine serum,
penicillin (100 units/ml.) and
streptomycin (100 mcg./ml.)
Maintenance Medium - A 1:1 mixture of BME and Medium
199; contains 2 % fetal bovine serum.
Trypsin - (1-300) 0.25 % in Ca-free and Mg-free
Hanks' balanced salt solution (BSS)
Roller Bottles - Bellco
Tubes - Sterile 16 × 150 mm plastic screw top
(§10) Roller bottles are seeded with approximately 10^7 cells
(§11) in […] growth medium and rotated at 0.5 rpm on
(§12) the Bellco roller apparatus at 37° C until the cell
(§13) Trypsinization - Cells are resuspended in growth medium
(§14) at a concentration of […] HeLa cells/ml.
(§15) cell suspensions are gassed with CO2 to a pH of 6.8.
(§16) Sterile plastic tubes are seeded with 1.0 ml of cell
(§17) suspension and incubated in a stationary position for
(§18) two days (until cell sheet is confluent).
(§19) The compound is dissolved in distilled water at a maximum
(§20) concentration of 500 gamma/ml. Where necessary, NaOH,
(§21) HCl or ethanol is used to dissolve the material. The
(§22) pH of the final solution is adjusted as closely as
(§23) possible to pH 7.2. This stock solution is then
(§24) diluted with medium to contain appropriate concentrations
The virus is thawed rapidly at 37° C and diluted
in maintenance medium - to 10-^8 for titration and to an
estimated 10 - 100 Tissue Culture Infectious Dose50
PROCEDURE: The growth medium is decanted from the cell sheet in the
Adsorbed virus system: 0.1 ml of virus dilution is added
to each of the tubes and the tubes are rolled at 33°
(§25) for 1 hour. Cytotoxicity and control tubes are rolled
(§26) with just 0.1 ml of medium. After a 1 hour adsorption
period, 0.9 ml of the appropriate dilution of the test
compound is added to each of the tubes and the tubes
are returned to the roller apparatus.
Unadsorbed virus system: 0.1 ml of the diluted virus and
0.9 ml of the diluted test compound are added simultaneously
to a tube and the tubes rotated at 33° C.
(§27) RECORDING: HeLa cell cultures are read every day, starting on day 3
(§28) and readings are continued until culture controls have
(§29) shown a non-specific cytopathic effect (CPE) in about
(§30) 5-6 days. WI-38 cultures are read every other day,
starting with day 3, for 10-14 days.
(§31) on the degree and nature of the CPE. Viral CPE is
also recorded as 0 - 4+, depending on the percent of
(§32) the cell sheet showing virus growth. Four tubes are
(§33) used for each concentration of compound and for each
(§34) concentration of virus dilution, and the four CPE
(§35) ratings within each group are averaged.
To be considered active, a specific concentration of a test
compound must average 2 or more points below that of the
virus control. Actual TCID50 of virus used is
by method of Reed and Muench.

The nature of another series: in vitro. The conditions noted are these: human, hela cells. Type of series: cell-based, Human.
Description: as §1, §2, §3, §4, §5, §6, §7, §8, §10, §11, §12, §13, §14, §15, §16, §17, §18, §19, §20, §21, §22, §23, §24, §25, §26, §27, §28, §29, §30
(§36) Compound cytoxicity is recorded as 0 - 4+, depending
as §31, §32, §33, §34, §35

Series [2] has as its system HeLa. Briefly: in vitro. Type of series: cell-based, Human.
Description: as §1, §2, §3, §4, §5, §6, §7, §8, §10, §11, §12, §13, §14, §15, §16, §17, §18, §19, §20, §21, §22, §23, §24, §25, §26, §27, §28, §29, §30, §36, §31, §32, §33, §34, §35

The test system of series [3] is Rhinovirus 2 (HGP). The experiment in a line: Antiviral Activity, Solid Media (Herrmann modification of the Dulbecco technique), plaque suppression by disc, HeLa cells. Type of series: cell-based. The conditions noted are these: Rhinovirus 2 HGP adsorbed, Day 5, 100 mcg disc, virus 66 PFU/ml (Example 4), 970 PFU/ml (Example 7).
Description: as §1
(§37) The procedure for the Herrmann modification used is as follows:
(§38) TEST NAME: Antiviral Activity, Solid Media
(§39) PURPOSE: The determination of toxicity and antiviral activity
(§40) of experimental compounds in normal and cancer cell
(§41) lines as measured by plaque suppression in solid media.
(§42) MATERIALS: Cell Line - Cancer
(§43) HeLa - Human carcinoma of the cervix
as §9
Growth Medium - Basal Medium Eagle (BME) containing 10 %
fetal bovine serum, penicillin (100 units/ml)
and streptomycin (100 mcg/ml).
Trypsin - (1-300) 0.25 % trypsin in Ca-free and Mg-free
Hanks' balanced salt solution (BSS).
(1) Rhinovirus: A 1:1 mixture of BME and
Medium 199. Contains 2 % fetal bovine serum
(FBS); 30 mM MgCl2; 0.3 % Tris; 30 gamma/ml
diethylaminoethyl (DEAE) dextran and 1 %
Wash Fluid - Phosphate-buffered saline (PBS) containing
Discs - Sterile Schleicher and Schuell 1/4"
penicillin assay discs.
Plates - Falcon plastic 60 × 15 mm dishes. […]
(§44) measured across the entire diameter (including disc).
The number of plaques on titration plates are counted to […]

Series [4] has as its system HeLa. Briefly: Cytotoxicity, solid media (disc), zones of cytotoxicity. The conditions noted are these: Day 5, 100 mcg disc. It counts as cell-based, Human.
Description: as §1, §37, §38, §39, §40, §41, §42, §43, §10
in 250-300 ml of growth medium and rotated at 0.5 rpm on
as §12
Cells are removed from the glass surface with trypsin.
The cells are resuspended in medium to a concentration
of 2.0 × 10^5 /ml. Falcon plastic 60 × 15 mm
seeded with 5.0 ml of cell suspension and incubated for
48 hours at 37° C in Pyrex baking dishes sealed with
Water-soluble compounds are prepared in distilled water
with the aid of HCl or NaOH as necessary. Solutions
are Millipore filtered. Water insoluble compounds are
Sterile Schleicher and Schuell 1/4" penicillin assay […]
as §44

In the case of `COc1ccc(C2CN(O)C3CCCCC23)cc1OC` (stereo not shown) [Example 4, 3-(3,4-dimethoxyphenyl)hexahydro-1-hydroxyindoline hydrochloride], in the series on Rhinovirus 2 (HGP) [1] (Tube, HeLa, Rhinovirus 2 HGP nonadsorbed, virus 31 TCID50 (Example 13), 100 TCID50 (Example 4), active = averages 2 or more points below virus control, hydrochloride), the “Antiviral: concentration at which active, Day 4” value is 100 µg/mL and 50 µg/mL. The “Antiviral: concentration at which inactive, Day 5” value in the series on Rhinovirus 2 (HGP) [1] (Tube, HeLa, Rhinovirus 2 HGP nonadsorbed, Day 5, virus 31 TCID50 (Example 13), 100 TCID50 (Example 4)) amounted to 6.25 µg/mL. The MNTC at 96 h in the series “in vitro” is 100 µg/mL. Besides, in the series on HeLa [2], the “Cytotoxicity: concentration at which toxic, Day 5” value is given as 100-12.5 and the “toxic effect on the cells” value was “undetermined toxic effect on the cells was observed”. In the series with Rhinovirus 2 (HGP) [3] (hydrochloride), the “Antiviral, disc” value is “inactive”. In addition, the “Cytotoxicity, disc” value with HeLa [4] was “Nontoxic”.

For the compound `COc1ccc(C2CN(O)C3(C)CCCCC23)cc1OC` (stereo not shown) [Example 7, 3-(3,4-Dimethoxyphenyl)hexahydro-1-hydroxy-7a-methyl-indoline], in the series with Rhinovirus 2 (HGP) [1] (Tube, HeLa, Rhinovirus 2 HGP nonadsorbed, virus 31 TCID50 (Example 13), 100 TCID50 (Example 4), active = averages 2 or more points below virus control), the “Antiviral: concentration at which active, Day 4” value is 100 µg/mL and 50 µg/mL. Besides, the “Antiviral: concentration at which active, Day 5” value in the series on Rhinovirus 2 (HGP) [1] (Tube, HeLa, Rhinovirus 2 HGP nonadsorbed, Day 5, 20 TCID50, active = averages 2 or more points below virus control) was 100 µg/mL and 50 µg/mL. Also, the “antiviral activity in the liquid system on 4th and 5th days” value in the series with Rhinovirus 2 (HGP) [1] (liquid system, both the 4th and 5th days of incubation) is “showed activity at two concentrations”. In the series “in vitro”, this compound came in with an MCC at 120 h of 100 µg/mL and an MNTC at 96 h of 100 µg/mL. In addition, in the series with HeLa [2], the “toxic effect of undetermined origin, day 5” value is given as “very slight toxic effect”. Besides, the “Antiviral, disc” value in the series on Rhinovirus 2 (HGP) [3] was “inactive”. For the same compound, the “Cytotoxicity, disc” value in the series on HeLa [4] is given as “Nontoxic”.

In the case of `COc1ccccc1C1C[N+]([O-])=C2CCCCC21.Cl` (stereo not shown) [Example 13, 3,3a,4,5,6,7-hexahydro-3-(o-methoxyphenyl)-2H-indole 1-oxide hydrochloride], in the series with Rhinovirus 2 (HGP) [1] (liquid test, four days of incubation), the “antiviral activity after four days of incubation, liquid test” value is “showed antiviral activity”. The same compound came in with an MNTC at 96 h in “in vitro” of 108 µg/mL. In addition, in the series on HeLa [2], the “Cytotoxicity: concentration at which toxic, Day 5” value is given as 108-10.5 and the “toxic effect on the cells” value was “undetermined toxic effect on the cells was observed”.

(Values after US3989714A, “3-Phenylhydroindoles” (priority 1974, dated 1976).)
